From patent US20250340538A1, “IMIDAZOLONE DERIVATIVES AS INHIBITORS OF PROTEIN KINASES IN PARTICULAR DYRK1A, CLK1 AND/OR CLK4” (PERHA PHARMACEUTICALS, priority 2021, published 2025)
Like-named read-outs stand apart in the source and are kept apart here.

Assays:
Type in all cases: biochemical
[1] = target: T1, DYRK1A (Homo sapiens, UniProt Q13627); assay: Radiometric protein kinase assay (33PanQinase Activity Assay), DYRK1A; settings: for Selectivity Class DYRK1A vs. CLK1: ratio of IC50 on CLK1 over IC50 on DYRK1A; for Selectivity Class DYRK1A vs. DYRK1B: ratio of IC50 on DYRK1B over IC50 on DYRK1A
T1 construct: GST-fusion or His-tag (not specified per kinase); purchased ProQinase GmbH; host or cells: Sf9 insect cells or E. coli (not specified per kinase)
Outline: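 Recombinant human kinase, expressed in Sf9 or E. coli, in a radiometric [γ-33P]-ATP assay at 30 °C for 60 min. Compounds tested at 10 concentrations from 10 μM to 30 nM, 1% DMSO final. 33Pi incorporation measured by scintillation counting; IC50 from dose-response curves.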

[2] = target: T2, DYRK1B (Homo sapiens, UniProt Q9Y463); assay: Radiometric protein kinase assay (33PanQinase Activity Assay), DYRK1B; settings: read-out: IC50 on DYRK1B (most potent DYRK1B inhibitors)
T2 construct: GST-fusion or His-tag (not specified per kinase); purchased ProQinase GmbH; host or cells: Sf9 insect cells or E. coli (not specified per kinase)
T2 sequence (Q9Y463 whole entry, the tested form may be a part): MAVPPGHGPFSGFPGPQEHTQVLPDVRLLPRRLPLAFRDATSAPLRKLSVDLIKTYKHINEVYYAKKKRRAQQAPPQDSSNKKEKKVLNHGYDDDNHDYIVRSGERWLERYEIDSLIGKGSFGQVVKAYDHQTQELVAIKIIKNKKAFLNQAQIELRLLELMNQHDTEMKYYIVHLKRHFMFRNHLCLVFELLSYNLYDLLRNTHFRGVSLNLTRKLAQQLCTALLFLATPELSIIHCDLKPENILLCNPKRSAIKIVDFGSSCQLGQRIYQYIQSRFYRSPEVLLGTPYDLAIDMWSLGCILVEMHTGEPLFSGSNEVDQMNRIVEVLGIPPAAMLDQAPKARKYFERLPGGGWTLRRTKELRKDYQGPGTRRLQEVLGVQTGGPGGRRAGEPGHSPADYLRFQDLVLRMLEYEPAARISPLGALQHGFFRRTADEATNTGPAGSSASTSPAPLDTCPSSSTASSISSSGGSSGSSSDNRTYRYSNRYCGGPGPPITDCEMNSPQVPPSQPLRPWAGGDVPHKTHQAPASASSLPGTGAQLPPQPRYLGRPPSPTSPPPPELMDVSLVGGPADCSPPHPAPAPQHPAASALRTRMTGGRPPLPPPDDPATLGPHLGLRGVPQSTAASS
Protocol: (§1) Assays were performed by ProQinase GmbH (Engesserstr. 4, D-79108 Freiburg, Germany. www.proqinase.com). The IC50 profile of all compounds was determined using 12 protein kinases (CDK2/cyclin E, CK1ε, CLK1, 2, 3, 4, DYRK1A, 1B, 2, 3, 4, GSK3β).
(§2) The compounds were provided as […] in 100% DMSO. Prior to testing, the 1 μM stock solutions were subjected to a serial, semi-logarithmic dilution using 100% DMSO as a solvent. […] In the process, 90 μl H2O were added to each well of each compound dilution plate. To minimize potential precipitation, the H2O was added to each plate only a few minutes before the transfer of the compound solutions into the assay plates. The plate was shaken thoroughly, resulting in a compound dilution plate/10% DMSO.
(§3) For the assays (see below), 5 μL solution from each well of the compound dilution plates/10% DMSO were transferred into the assay plates. The final volume of the assay was 50 μL. All compounds were tested at 10 final assay concentrations in the range from 10 μM to 30 nM. The final DMSO concentration in the reaction cocktails was 1% in all cases.
(§4) All protein kinases provided by ProQinase were expressed in Sf9 insect cells or in E. coli as recombinant GST-fusion proteins or His-tagged proteins, either as full-length or enzymatically active fragments. All kinases were produced from human cDNAs and purified by either GSH-affinity chromatography or immobilized metal. Affinity tags were removed from a number of kinases during purification. The purity of the protein kinases was examined by SDS-PAGE/Coomassie staining, the identity was checked by mass spectroscopy.
(§5) A radiometric protein kinase assay (33PanQinase® Activity Assay) was used for measuring the kinase activity of the 12 protein kinases. All kinase assays were performed in 96-well FlashPlates™ from PerkinElmer (Boston, MA, USA) in a 50 μL reaction volume. The reaction cocktail was pipetted in four steps in the following order: • 25 μL of assay buffer (standard buffer/[γ-^33P]-ATP), • 10 μL of ATP solution (in H2O), • 5 μL of test compound (in 10% DMSO), • 10 μL of enzyme/substrate mixture.
(§6) The reaction cocktails were incubated at 30° C. for 60 minutes. The reaction was stopped with 50 μL of 2% (v/v) H3PO4, plates were aspirated and washed two times with 200 μL 0.9% (w/v) NaCl. Incorporation of ^33Pi was determined with a microplate scintillation counter (Microbeta, Wallac). The IC50 values for all compounds were calculated from the dose response curves
(§7) As a parameter for assay quality, the Z′-factor (Zhang et al., J. Biomol. Screen. 2: 67-73, 1999) for the low and high controls of each assay plate (n=8) was used. ProQinase's criterion for repetition of an assay plate is a Z′-factor below 0.4 (Iversen et al., J. Biomol. Screen. 3: 247-252, 2006).

[3] = target: T3, CLK4 (Homo sapiens, UniProt Q9HAZ1); assay: Radiometric protein kinase assay (33PanQinase Activity Assay), CLK4; settings: read-out: IC50 on CLK4 (most potent CLK4 inhibitors)
T3 construct: GST-fusion or His-tag (not specified per kinase); purchased ProQinase GmbH; host or cells: Sf9 insect cells or E. coli (not specified per kinase)
T3 sequence (Q9HAZ1 whole entry, the tested form may be a part): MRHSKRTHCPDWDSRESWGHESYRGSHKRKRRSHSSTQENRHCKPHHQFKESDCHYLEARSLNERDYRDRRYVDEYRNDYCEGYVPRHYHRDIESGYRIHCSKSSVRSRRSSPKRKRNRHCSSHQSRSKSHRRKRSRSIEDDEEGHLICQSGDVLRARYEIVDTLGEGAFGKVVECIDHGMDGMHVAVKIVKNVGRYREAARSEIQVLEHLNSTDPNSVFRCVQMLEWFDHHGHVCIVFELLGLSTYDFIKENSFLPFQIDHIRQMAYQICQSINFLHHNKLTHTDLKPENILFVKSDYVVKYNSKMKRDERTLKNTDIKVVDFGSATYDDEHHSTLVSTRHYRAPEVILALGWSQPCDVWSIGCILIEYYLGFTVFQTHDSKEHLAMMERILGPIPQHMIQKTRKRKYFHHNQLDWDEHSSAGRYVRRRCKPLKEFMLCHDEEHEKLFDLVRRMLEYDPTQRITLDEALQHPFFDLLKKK
Protocol: as §1, §2, §3, §4, §5, §6, §7

[4] = target: T4, CLK1 (Homo sapiens, UniProt P49759); assay: Radiometric protein kinase assay (33PanQinase Activity Assay), CLK1
T4 construct: GST-fusion or His-tag (not specified per kinase); purchased ProQinase GmbH; host or cells: Sf9 insect cells or E. coli (not specified per kinase)
T4 sequence (P49759 whole entry, the tested form may be a part): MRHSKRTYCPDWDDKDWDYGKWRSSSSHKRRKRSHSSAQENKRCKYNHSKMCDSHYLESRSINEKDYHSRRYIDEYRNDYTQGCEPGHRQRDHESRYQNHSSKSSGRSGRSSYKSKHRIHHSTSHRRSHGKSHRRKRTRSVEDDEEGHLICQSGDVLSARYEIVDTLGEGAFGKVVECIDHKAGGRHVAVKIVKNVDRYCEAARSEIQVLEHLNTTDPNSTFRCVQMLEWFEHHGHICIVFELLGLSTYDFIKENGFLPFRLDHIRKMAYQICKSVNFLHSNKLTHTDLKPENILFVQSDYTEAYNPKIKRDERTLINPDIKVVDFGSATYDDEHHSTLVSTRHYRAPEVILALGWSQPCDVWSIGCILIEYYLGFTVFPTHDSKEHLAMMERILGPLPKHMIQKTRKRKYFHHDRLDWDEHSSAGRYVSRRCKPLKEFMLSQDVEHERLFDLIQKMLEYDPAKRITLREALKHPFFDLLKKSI
Outline: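 33P incorporation counted by microplate scintillation after H3PO4 stop and NaCl washes; IC50 fitted from dose-response curves. Reactions of kinase/substrate, [γ-33P]-ATP and compound ran 60 min at 30 °C, 1% DMSO final, 10 concentrations (10 μM–30 nM).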

[5] = target: T5, CLK2 (Homo sapiens, UniProt P49760); assay: Radiometric protein kinase assay (33PanQinase Activity Assay), CLK2; settings: read-out: IC50 on CLK2 (most potent CLK2 inhibitors)
T5 construct: GST-fusion or His-tag (not specified per kinase); purchased ProQinase GmbH; host or cells: Sf9 insect cells or E. coli (not specified per kinase)
T5 sequence (P49760 whole entry, the tested form may be a part): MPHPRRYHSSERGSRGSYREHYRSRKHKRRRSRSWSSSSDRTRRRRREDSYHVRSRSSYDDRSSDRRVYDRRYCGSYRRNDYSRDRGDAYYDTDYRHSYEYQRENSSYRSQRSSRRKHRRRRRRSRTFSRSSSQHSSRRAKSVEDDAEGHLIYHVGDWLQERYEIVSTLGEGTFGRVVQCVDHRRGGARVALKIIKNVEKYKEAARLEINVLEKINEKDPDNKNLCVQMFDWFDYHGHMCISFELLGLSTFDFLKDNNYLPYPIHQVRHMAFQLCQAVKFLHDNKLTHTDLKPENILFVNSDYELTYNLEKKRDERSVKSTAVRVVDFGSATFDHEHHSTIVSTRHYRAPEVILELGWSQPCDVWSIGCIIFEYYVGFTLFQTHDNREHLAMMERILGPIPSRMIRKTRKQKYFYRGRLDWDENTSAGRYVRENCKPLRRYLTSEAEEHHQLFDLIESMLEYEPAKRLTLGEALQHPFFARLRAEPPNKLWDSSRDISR
Protocol: as §1, §2, §3, §4, §5, §6, §7

[6] = target: T6, DYRK2 (Homo sapiens, UniProt Q92630); assay: Radiometric protein kinase assay (33PanQinase Activity Assay), DYRK2; settings: read-out: IC50 on DYRK2 (most potent DYRK2 inhibitors)
T6 construct: GST-fusion or His-tag (not specified per kinase); purchased ProQinase GmbH; host or cells: Sf9 insect cells or E. coli (not specified per kinase)
T6 sequence (Q92630 1-601): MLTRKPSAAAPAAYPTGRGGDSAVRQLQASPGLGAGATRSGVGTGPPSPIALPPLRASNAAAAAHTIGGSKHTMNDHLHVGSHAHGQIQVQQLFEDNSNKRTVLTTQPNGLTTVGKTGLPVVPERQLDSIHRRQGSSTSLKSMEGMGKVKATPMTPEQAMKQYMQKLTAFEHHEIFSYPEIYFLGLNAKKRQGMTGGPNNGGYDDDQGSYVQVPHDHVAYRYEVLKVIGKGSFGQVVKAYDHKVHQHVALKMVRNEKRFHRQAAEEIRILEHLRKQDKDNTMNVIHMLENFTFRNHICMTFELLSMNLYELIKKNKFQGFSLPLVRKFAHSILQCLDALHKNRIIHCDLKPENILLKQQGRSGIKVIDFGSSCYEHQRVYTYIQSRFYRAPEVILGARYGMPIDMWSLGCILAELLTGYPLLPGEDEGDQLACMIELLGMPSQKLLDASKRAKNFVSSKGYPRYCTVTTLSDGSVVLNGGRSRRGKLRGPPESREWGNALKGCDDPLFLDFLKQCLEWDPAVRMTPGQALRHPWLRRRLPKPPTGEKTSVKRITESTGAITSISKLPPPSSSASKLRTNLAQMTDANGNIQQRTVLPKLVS
Protocol: as §1, §2, §3, §4, §5, §6, §7

[7] = target: T7, DYRK3 (Homo sapiens, UniProt O43781); assay: Radiometric protein kinase assay (33PanQinase Activity Assay), DYRK3; settings: read-out: IC50 on DYRK3 (most potent DYRK3 inhibitors)
T7 construct: GST-fusion or His-tag (not specified per kinase); purchased ProQinase GmbH; host or cells: Sf9 insect cells or E. coli (not specified per kinase)
T7 sequence (O43781 1-588): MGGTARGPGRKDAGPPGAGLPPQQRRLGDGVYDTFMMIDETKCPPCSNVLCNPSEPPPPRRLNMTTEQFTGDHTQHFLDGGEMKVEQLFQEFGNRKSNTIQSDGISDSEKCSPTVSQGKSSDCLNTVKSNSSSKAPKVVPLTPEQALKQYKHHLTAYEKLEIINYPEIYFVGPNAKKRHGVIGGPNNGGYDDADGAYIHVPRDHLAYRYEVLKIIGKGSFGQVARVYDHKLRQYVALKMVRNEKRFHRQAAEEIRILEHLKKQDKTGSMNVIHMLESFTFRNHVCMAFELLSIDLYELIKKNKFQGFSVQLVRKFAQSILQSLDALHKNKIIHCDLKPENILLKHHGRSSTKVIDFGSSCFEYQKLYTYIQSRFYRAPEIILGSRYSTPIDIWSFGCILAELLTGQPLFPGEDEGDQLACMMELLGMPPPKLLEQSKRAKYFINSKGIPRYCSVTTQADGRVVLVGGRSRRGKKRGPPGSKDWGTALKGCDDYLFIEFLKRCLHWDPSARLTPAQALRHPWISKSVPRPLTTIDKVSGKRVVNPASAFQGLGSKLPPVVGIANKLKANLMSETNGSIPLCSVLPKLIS
Protocol: as §1, §2, §3, §4, §5, §6, §7

[8] = target: T8, CLK3 (Homo sapiens, UniProt P49761); assay: Radiometric protein kinase assay (33PanQinase Activity Assay), CLK3; settings: read-out: IC50 on CLK3 (most potent CLK3 inhibitors)
T8 construct: GST-fusion or His-tag (not specified per kinase); purchased ProQinase GmbH; host or cells: Sf9 insect cells or E. coli (not specified per kinase)
T8 sequence (P49761 whole entry, the tested form may be a part): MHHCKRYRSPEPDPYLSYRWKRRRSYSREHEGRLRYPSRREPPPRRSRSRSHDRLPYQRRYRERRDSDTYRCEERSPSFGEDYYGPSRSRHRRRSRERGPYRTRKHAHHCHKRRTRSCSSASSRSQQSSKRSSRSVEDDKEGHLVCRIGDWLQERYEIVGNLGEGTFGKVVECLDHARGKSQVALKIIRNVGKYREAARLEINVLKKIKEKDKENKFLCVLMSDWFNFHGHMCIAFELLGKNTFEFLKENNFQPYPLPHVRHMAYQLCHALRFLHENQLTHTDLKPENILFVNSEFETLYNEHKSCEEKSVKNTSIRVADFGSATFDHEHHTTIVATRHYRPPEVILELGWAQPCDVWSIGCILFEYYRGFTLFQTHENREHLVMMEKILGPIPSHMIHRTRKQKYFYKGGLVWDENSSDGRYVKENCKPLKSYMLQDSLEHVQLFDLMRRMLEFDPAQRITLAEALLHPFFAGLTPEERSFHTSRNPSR
Protocol: as §1, §2, §3, §4, §5, §6, §7

[9] = IC50 class A to E, read-out: Potency Class DYRK1A
[10] = class by IC50 on DYRK1A, from dose-response curves, read-out: Potency Class DYRK1A
[11] = read-out: IC50 on DYRK1A (most potent DYRK1A inhibitors)
[12] = IC50 class A to E, read-out: Potency Class CLK1
[13] = class by IC50 on CLK1, from dose-response curves, read-out: Potency Class CLK1

SMILES	IC50 [1, 9]	IC50 [1, 10]	Selectivity Class DYRK1A vs. CLK1 [1]	Selectivity Class DYRK1A vs. DYRK1B [1]	IC50 [1, 11]	IC50 [2]	IC50 [3]	IC50 [4, 12]	IC50 [4, 13]	IC50 [5]	IC50 [6]	IC50 [7]	IC50 ([4]; read-out: IC50 on CLK1 (most potent CLK1 inhibitors))	IC50 [8]
O=C1NC(NC23CC4CC(CC(O)(C4)C2)C3)=N/C1=C\c1ccc2nccnc2c1 [Compound 18, (4Z)-2-[(3-hydroxy-1-adamantyl)amino]-4-(quinoxalin-6-ylmethylene)-1H-imidazol-5-one]	≤ 5 nM	< 5 nM	II (ratio between 2 and 10 fold)	II (ratio between 2 and 10 fold)	≤ 10 nM	≤ 10 nM	≤ 10 nM	10 to 25 nM	10 to 25 nM					
COC12CC3CC(CC(NC4=N/C(=C\c5ccc6nccnc6c5)C(=O)N4)(C3)C1)C2 [Compound 19, (4Z)-2-[(3-methoxy-1-adamantyl)amino]-4-(quinoxalin-6-ylmethylene)-1H-imidazol-5-one]	≤ 5 nM	< 5 nM	II (ratio between 2 and 10 fold)	II (ratio between 2 and 10 fold)	≤ 10 nM	≤ 10 nM	≤ 10 nM	10 to 25 nM	10 to 25 nM	≤ 100 nM	≤ 250 nM			
O=C1NC(NC23CC4CC(CC(F)(C4)C2)C3)=N/C1=C\c1ccc2nccnc2c1 [Compound 20, (4Z)-2-[(3-fluoro-1-adamantyl)amino]-4-(quinoxalin-6-ylmethylene)-1H-imidazol-5-one]	≤ 5 nM	< 5 nM	II (ratio between 2 and 10 fold)	III (ratio between 0.5 and 2 fold)	≤ 10 nM	≤ 10 nM	≤ 10 nM	10 to 25 nM	10 to 25 nM	≤ 100 nM	≤ 250 nM	≤ 250 nM	≤ 10 nM	
O=C1NC(NC23CC4CC(CC2C4)C3)=N/C1=C\c1ccc2ncccc2c1 [Compound 48, (4Z)-2-(3-noradamantylamino)-4-(6-quinolylmethylene)-1H-imidazol-5-one]	5 to 10 nM	5 to 10 nM	II (ratio between 2 and 10 fold)	II (ratio between 2 and 10 fold)	≤ 10 nM		≤ 10 nM	10 to 25 nM	10 to 25 nM		≤ 250 nM	≤ 250 nM		
COC[C@H](NC1=N/C(=C\c2ccc3ncncc3c2)C(=O)N1)c1ccccc1 [Compound 69, (4Z)-2-[[(1R)-2-methoxy-1-phenyl-ethyl]amino]-4-(quinazolin-6-ylmethylene)-1H-imidazol-5-one]	≤ 5 nM	< 5 nM	II (ratio between 2 and 10 fold)	II (ratio between 2 and 10 fold)	≤ 10 nM	≤ 10 nM	≤ 10 nM	10 to 25 nM	10 to 25 nM	≤ 100 nM	≤ 250 nM	≤ 250 nM		
O=C1NC(NC2CCCCCC2)=N/C1=C\c1ccc2ncccc2n1 [Compound 80, (4Z)-2-(cycloheptylamino)-4-(1,5-naphthyridin-2-ylmethylene)-1H-imidazol-5-one]		10 to 25 nM	III (ratio between 0.5 and 2 fold)	II (ratio between 2 and 10 fold)					25 to 50 nM					≤ 500 nM
COC[C@@H](CC(C)C)NC1=N/C(=C\c2ccc3ncccc3n2)C(=O)N1 [Compound 81, (4Z)-2-[[(1R)-1-(methoxymethyl)-3-methyl-butyl]amino]-4-(1,5-naphthyridin-2-ylmethylene)-1H-imidazol-5-one]		> 50 nM	III (ratio between 0.5 and 2 fold)	III (ratio between 0.5 and 2 fold)					> 50 nM					≤ 500 nM
